From patent US8273890B2 (4SC AG, priority 2007, dated 2012)

Target: T1, recombinant Plk1 protein (Homo sapiens, UniProt P53350)
T1 construct: histidine tag (N); made in house; host or cells: SF9 insect cells
Experiment: Plk1 kinase activity inhibition assay (33P-ATP, alpha casein substrate, flash plates)
Type: biochemical
Conditions: enzymatic assay, 100 nM Li-ATP, 80 minutes at 30° C.
In short: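 N-terminally His-tagged human Plk1 from SF9 cells (50–100 ng/well) phosphorylated alpha casein (500 ng/well) with 100 nM ATP including 33P-ATP at pH 7.5, with Mg2+ and Mn2+, 80 min at 30 °C. 33P incorporation read on scintillator-coated flash plates; IC50 derived.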

T1 sequence (P53350 whole entry): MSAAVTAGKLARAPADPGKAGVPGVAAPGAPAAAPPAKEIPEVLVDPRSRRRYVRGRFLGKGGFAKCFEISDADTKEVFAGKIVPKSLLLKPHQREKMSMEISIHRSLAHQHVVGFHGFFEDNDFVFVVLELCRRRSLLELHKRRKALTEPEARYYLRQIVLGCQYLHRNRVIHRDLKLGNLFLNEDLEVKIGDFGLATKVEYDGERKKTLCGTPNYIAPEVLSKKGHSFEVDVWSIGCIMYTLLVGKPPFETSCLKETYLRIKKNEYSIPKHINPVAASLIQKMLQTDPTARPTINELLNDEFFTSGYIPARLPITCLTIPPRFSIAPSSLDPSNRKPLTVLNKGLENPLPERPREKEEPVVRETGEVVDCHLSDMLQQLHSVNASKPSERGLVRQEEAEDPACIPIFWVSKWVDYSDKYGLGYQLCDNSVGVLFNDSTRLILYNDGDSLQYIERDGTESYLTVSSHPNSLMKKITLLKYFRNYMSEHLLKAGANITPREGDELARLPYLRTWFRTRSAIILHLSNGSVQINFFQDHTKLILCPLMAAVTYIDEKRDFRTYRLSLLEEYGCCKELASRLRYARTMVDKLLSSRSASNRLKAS

Compound	IC50 [nM]
CCN1CCN(Cc2cc3c(cn2)ncn3-c2cc(OC(C)c3ccccc3OC(F)F)c(C(N)=O)s2)CC1 (stereo not shown) [Example 135, 3-{1-[2-(difluoromethoxy)phenyl]ethoxy}-5-{6-[(4-ethylpiperazin-1-yl)methyl]-1H-imidazo[4,5-c]pyridin-1-yl}thiophene-2-carboxamide]	< 10
CC(Oc1cc(-n2cnc3cnc(CO)cc32)sc1C(N)=O)c1ccc(C#N)cc1Cl (stereo not shown) [Example 123, 3-[1-(2-chloro-4-cyanophenyl)ethoxy]-5-[6-(hydroxymethyl)-1H-imidazo[4,5-c]pyridin-1-yl]thiophene-2-carboxamide]	< 10
C[C@@H](Oc1cc(-n2cnc3cnc(CNCCO)cc32)sc1C(N)=O)c1ccccc1C(F)(F)F [Example 104, 5-(6-{[(2-hydroxyethyl)amino]methyl}-1H-imidazo[4,5-c]pyridin-1-yl)-3-{(1R)-1-[2-(trifluoromethyl)phenyl]ethoxy}thiophene-2-carboxamide]	10 to 100
NC(=O)c1sc(-n2cnc3cc(CO)ncc32)cc1OCc1ccccc1C(F)(F)F [Example 10, 5-[6-(Hydroxymethyl)-3H-imidazo[4,5-c]pyridin-3-yl]-3-{[2-(trifluoromethyl)benzyl]oxy}thiophene-2-carboxamide]	100 to 1000
CCC(Oc1cc(-n2cnc3cnc(CN4CCN(C)CC4)cc32)sc1C(N)=O)c1ccccc1Cl (stereo not shown) [Example 102, 3-{[1-(2-chlorophenyl)propyl]oxy}-5-{6-[(4-methylpiperazin-1-yl)methyl]-1H-imidazo[4,5-c]pyridin-1-yl}thiophene-2-carboxamide]	10 to 100
CC(Oc1cc(-n2cnc3cnc(CN4CCN(C)CC4)cc32)sc1C(N)=O)c1ccccc1F (stereo not shown) [Example 103, 3-[1-(2-fluorophenyl)ethoxy]-5-{6-[(4-methylpiperazin-1-yl)methyl]-1H-imidazo[4,5-c]pyridin-1-yl}thiophene-2-carboxamide]	10 to 100
COc1cc2ncn(-c3cc(OCc4ccccc4C(F)(F)F)c(C(N)=O)s3)c2cn1 [Example 17, 5-(6-Methoxy-3H-imidazo[4,5-c]pyridin-3-yl)-3-{[2-(trifluoromethyl)benzyl]oxy}thiophene-2-carboxamide]	10 to 100

Next, values leading:

IC50 [nM]	Compound
10 to 100	N#Cc1ccccc1COc1cc(-n2cnc3cnccc32)sc1C(N)=O [Example 39, 3-[(2-cyanobenzyl)oxy]-5-(1H-imidazo[4,5-c]pyridin-1-yl)thiophene-2-carboxamide]
< 10	CC(c1ccccc1)N1CCN(Cc2cc3c(cn2)ncn3-c2cc(O[C@H](C)c3ccccc3C(F)(F)F)c(C(N)=O)s2)CC1 (stereo partly drawn) [Example 119, 5-(6-{[4-(1-phenylethyl)piperazin-1-yl]methyl}-1H-imidazo[4,5-c]pyridin-1-yl)-3-{(1R)-1-[2-(trifluoromethyl)phenyl]ethoxy}thiophene-2-carboxamide]
10 to 100	C[C@@H](Oc1cc(-n2cnc3cnc(CN4CCN(C(=O)C(F)(F)F)CC4)cc32)sc1C(N)=O)c1ccccc1C(F)(F)F [Example 159, 5-(6-{[4-(trifluoroacetyl)piperazin-1-yl]methyl}-1H-imidazo[4,5-c]pyridin-1-yl)-3-{(1R)-1-[2-(trifluoromethyl)phenyl]ethoxy}thiophene-2-carboxamide]
10 to 100	CCC(Oc1cc(-n2cnc3cnc(CN4CCN(c5ccncc5)CC4)cc32)sc1C(N)=O)c1ccccc1Cl (stereo not shown) [Example 143, 3-{[1-(2-chlorophenyl)propyl]oxy}-5-{6-[(4-pyridin-4-ylpiperazin-1-yl)methyl]-1H-imidazo[4,5-c]pyridin-1-yl}thiophene-2-carboxamide]
10 to 100	CC(Oc1cc(-n2cnc3cnccc32)sc1C(N)=O)c1ccccc1Cl (stereo not shown) [Example 15, 3-[1-(2-Chlorophenyl)ethoxy]-5-(1H-imidazo[4,5-c]pyridin-1-yl)thio-phene-2-carboxamide]
100 to 1000	NC(=O)c1sc(-n2cnc3ccncc32)cc1OCc1ccccc1C(F)(F)F [Example 3, 5-(3H-Imidazo[4,5-c]pyridin-3-yl)-3-{[2-(trifluoromethyl)benzyl]oxy}thio-phene-2-carboxamide]
